Test [1] concerns the target T1, dopamine D2 receptors (Homo sapiens (Human), UniProt P14416). The test can be described thus: Dopamine D2 receptor radioligand competition binding assay ([3H]-Methylspiperone). Particulars: [3H]-Methylspiperone 0.3 to 0.5 nM, 293T membranes. In outline: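 Membranes from cells transfected with human D2 receptor, PEI-mediated; competition with [3H]-methylspiperone for 2 h at room temperature in the dark.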

Test [2] has as its target T1, dopamine D2 receptors. The test can be described thus: Dopamine D2 receptor β-arrestin2 BRET (recruitment). Particulars: for Emax: relative to endogenous ligand dopamine, read-out: β-arrestin2 BRET Emax % ± SEM; for EC50: unit printed only in Cariprazine cell, read-out: β-arrestin2 BRET EC50. Format: cell-based. In outline: (§1)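 G-protein assay: cells co-transfected with D2 receptor, Gαi1-Rluc, Gβ3 and Gγ9-GFP (1 μg each); β-arrestin2 assay: D2-Rluc, GRK2 and GFP2-β-arrestin2 co-transfected. Cells were reseeded after one day and tested on day three. Drug dilution series were added in duplicate with coelenterazine 400a (5 μM final), and the BRET signal was read.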

Test [3] concerns the target 5-hydroxytryptamine 1A (5-HT1A) receptors (Homo sapiens (Human), UniProt P08908). The test can be described thus: 5-HT1A receptor Gαi1 BRET (G protein trimer dissociation). It counts as cell-based. Particulars: relative to endogenous ligand 5-hydroxytryptamine. A general note: BRET reads energy transfer from a luciferase to a nearby fluorophore.
The target in a further test is 5-HT2A receptors (Homo sapiens (Human), UniProt P28223). The test can be described thus: 5-HT2A receptor radioligand competition binding assay ([3H]-ketanserin). Here is the method:
The affinity of the compounds of the present disclosure for 5-HT2A receptors was determined by a radioligand competition binding assay. In the first step, a cell membrane component containing specific 5-HT2A receptor was prepared. A 10 cm dish was used for transfection with […] of 5-HT2A receptors and 40 μL of PEI. After 48 hours, the 10 cm dish was taken out from the cell incubator and the cultured cells had expressed the 5-HT2A receptors. A vacuum pump was used to suck off the culture medium, 3 mL of lysis buffer was added to each culture dish, and the cells were placed in a 4° C. cold room for 10 minutes. After the cells were detached, the cells were transferred to a 15 mL centrifuge tube and centrifuged at 1500 rpm for 5 minutes at 4° C., and the supernatant was discarded. The cell pellet was transferred to a tissue homogenizer, and 3 mL of lysis buffer was added and fully ground until the cells were broken. Then, cell suspension was equally aliquoted into several EP tubes, centrifuged at 12000 rpm for 5 minutes at 4° C., and the supernatant was discarded. The precipitate was the cell membrane component containing the 5-HT2A receptors. […] First, a standard binding buffer was added to the cell membrane component containing the 5-HT2A receptors, and the cell membrane was disrupted and resuspended with an electric tissue homogenizer. 30 μL of membrane protein suspension was added to each well of a 96-well plate. Then, 30 μL of different drugs were added to the 96-well plate sequentially from bottom to top to ensure that the final drug concentrations were 10^−5 M, 10^−6 M, 10^−7 M, 10^−8 M, 10^−9 M, and 0 M, with two replicates per treatment. Next, 30 μL of [^3H]-ketanserin was added to each well of the 96-well plate. The plate was incubated at room temperature in the dark for 2 hours. Detection was conducted. The machine readout value reflected the amount of [^3H]-ketanserin bound on the membrane, and after further data processing, the affinity Ki values of different compounds for the 5-HT2A receptors were obtained.

In test [4] the target is T1, dopamine D2 receptors. The test can be described thus: Dopamine D2 receptor Gαi1 BRET (G protein trimer dissociation). It counts as cell-based. The following applies: for Emax: relative to endogenous ligand dopamine, read-out: Gαi1 BRET Emax % ± SEM. The method, boiled down: as §1
Setting [5] is: read-out: Gαi1 BRET pEC50 ± SEM (converted).
[6] abbreviates: unit printed only in Cariprazine cell, read-out: Gαi1 BRET EC50.
Where [7] appears, read: [3H]-ketanserin, 293T membranes, read-out: Ki.

Where two headings read alike, the source gives them in different places. Bounds are passed on as bounds.

Experimental findings from patent US20250109139A1, “TRICYCLIC COMPOUND, AND PREPARATION METHOD THEREFOR AND USE THEREOF” (SHANGHAITECH UNIVERSITY, priority 2022, published 2025) are described below.

T1 sequence (P14416 whole entry): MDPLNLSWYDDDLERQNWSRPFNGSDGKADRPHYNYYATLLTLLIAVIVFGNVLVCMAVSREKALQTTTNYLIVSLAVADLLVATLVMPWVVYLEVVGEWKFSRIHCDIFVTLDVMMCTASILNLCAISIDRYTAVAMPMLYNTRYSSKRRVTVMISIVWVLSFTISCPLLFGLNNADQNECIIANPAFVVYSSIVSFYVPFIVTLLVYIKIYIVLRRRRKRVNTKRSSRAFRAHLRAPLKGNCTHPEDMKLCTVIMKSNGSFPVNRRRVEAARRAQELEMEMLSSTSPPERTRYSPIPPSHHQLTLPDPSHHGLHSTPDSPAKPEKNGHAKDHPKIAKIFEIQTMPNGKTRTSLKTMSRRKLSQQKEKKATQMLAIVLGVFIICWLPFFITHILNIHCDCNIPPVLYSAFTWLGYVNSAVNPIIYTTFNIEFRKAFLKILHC
5-HT2A receptors, sequence (P28223 whole entry): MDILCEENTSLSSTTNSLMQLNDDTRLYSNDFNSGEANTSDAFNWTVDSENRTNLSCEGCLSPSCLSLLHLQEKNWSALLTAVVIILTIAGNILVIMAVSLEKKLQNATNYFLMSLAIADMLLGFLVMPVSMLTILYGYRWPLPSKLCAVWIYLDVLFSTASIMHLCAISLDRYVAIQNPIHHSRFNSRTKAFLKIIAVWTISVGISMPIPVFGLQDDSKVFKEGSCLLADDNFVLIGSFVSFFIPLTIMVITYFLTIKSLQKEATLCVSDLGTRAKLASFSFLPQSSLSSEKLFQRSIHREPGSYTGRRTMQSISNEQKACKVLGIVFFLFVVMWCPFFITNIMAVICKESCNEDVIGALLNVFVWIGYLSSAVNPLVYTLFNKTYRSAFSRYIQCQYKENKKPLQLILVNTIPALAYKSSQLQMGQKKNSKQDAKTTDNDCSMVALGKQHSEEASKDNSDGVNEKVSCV
5-hydroxytryptamine 1A (5-HT1A) receptors, sequence (P08908 whole entry): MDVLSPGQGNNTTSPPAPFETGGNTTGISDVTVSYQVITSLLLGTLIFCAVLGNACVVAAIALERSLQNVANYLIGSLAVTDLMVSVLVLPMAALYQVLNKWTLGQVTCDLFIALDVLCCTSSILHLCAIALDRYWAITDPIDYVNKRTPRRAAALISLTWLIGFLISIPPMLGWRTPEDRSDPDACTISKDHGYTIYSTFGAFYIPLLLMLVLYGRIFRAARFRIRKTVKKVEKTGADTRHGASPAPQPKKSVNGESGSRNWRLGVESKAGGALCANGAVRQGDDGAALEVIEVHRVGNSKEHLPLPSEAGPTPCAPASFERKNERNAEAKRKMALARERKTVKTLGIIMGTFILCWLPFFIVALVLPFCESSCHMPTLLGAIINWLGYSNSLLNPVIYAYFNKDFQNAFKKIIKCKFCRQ

As for `CCOc1cccc2c3c(oc12)CN(CCC1CC(NC(=O)N(C)C)C1)CC3` (stereo not drawn) [I-A34, 3-(3-(2-(8-ethoxy-3,4-dihydrobenzofuro[2,3-c]pyridin-2(1H)-yl)ethyl)cyclobutyl)-1,1-dimethylurea], the Ki on dopamine D2 receptors [1] (read-out: Affinity Ki) is 605 nM; at dopamine D2 receptors [1] (read-out: Affinity pKi ± SEM (converted)), 617 nM. Moreover, the Emax (as a rule, the maximal effect, on the per cent scale that the assay sets) at dopamine D2 receptors [2] is 33%; in test [3], 38.4%. For the same compound, the EC50 on dopamine D2 receptors [2] amounted to 2.81 nM.
As to `CCOc1cccc2c3c(oc12)CN(CCCCOc1ccc2c(c1)NC(=O)CO2)CC3` [I-A30, 6-(4-(8-ethoxy-3,4-dihydrobenzofuro[2,3-c]pyridin-2(1H)-yl)butoxy)-2H-benzo[b][1,4]oxazin-3(4H)-one], at dopamine D2 receptors [1] (read-out: Affinity Ki), the Ki is 151 nM. Further, the values for the Emax (at dopamine D2 receptors [2]; in test [3]) were 52% and 74.5%, respectively. Moreover, the EC50 at dopamine D2 receptors [2] turned out to be 23.7 nM.
In the case of `CCOc1cccc2c3c(oc12)CN(CCCCOc1ccc2ccc(=O)[nH]c2c1)CC3` [I-A16, 7-(4-(8-ethoxy-3,4-dihydrobenzofuro[2,3-c]pyridin-2(1H)-yl)butoxy)quinolin-2(1H)-one], the “Affinity pKi ± SEM” value on dopamine D2 receptors [1] is listed as “(7.78 ± 0.41)”. The Ki at dopamine D2 receptors [1] (read-out: Affinity Ki) turned out to be 16.5 nM. At dopamine D2 receptors [2], the “β-arrestin2 BRET pEC50 ± SEM” value is “(7.94 ± 0.11)” and the EC50 was found to be 11.3 nM. The compound further showed an Emax in test [3] of 85.9%. On 5-HT2A receptors, the Ki was determined as 1320 nM and the “affinity for 5-HT2A receptors (in words)” value was “very weak affinity”.
On to `CCOc1cccc2c3c(oc12)CN(CC1(O)CCCCC1)CC3` [I-A28, 1-((8-ethoxy-3,4-dihydrobenzofuro[2,3-c]pyridin-2(1H)-yl)methyl)cyclohexan-1-ol], for which the “Affinity pKi ± SEM” value on dopamine D2 receptors [1] is on record as “(6.99 ± 0.21)”. Moreover, the Ki on dopamine D2 receptors [1] (read-out: Affinity Ki) is 103 nM; on 5-HT2A receptors (setting [7]), greater than 10000 nM. Moreover, the EC50 was 44.7 nM on dopamine D2 receptors [4] (setting [5]), 32.5 nM at dopamine D2 receptors [4] (setting [6]) and 238 nM on dopamine D2 receptors [2]. Moreover, the Emax on dopamine D2 receptors [4] was 27%; at dopamine D2 receptors [2] it was 82%. Moreover, at 5-HT2A receptors, the “affinity for 5-HT2A receptors (in words)” value is “very weak affinity”.
Consider `COc1cccc2c3c(oc12)CN(CC1(O)CCCCC1)CC3` [I-A21, 1-((8-methoxy-3,4-dihydrobenzofuro[2,3-c]pyridin-2(1H)-yl)methyl)cyclohexan-1-ol], for which, on dopamine D2 receptors [1], the “Affinity pKi ± SEM” value is listed as “(6.28 ± 0.28)”. In addition, the Ki was 524 nM on dopamine D2 receptors [1] (read-out: Affinity Ki) and greater than 10000 nM on 5-HT2A receptors (setting [7]). The EC50 at dopamine D2 receptors [4] (setting [5]) is 2.95 nM; on dopamine D2 receptors [4] (setting [6]), 4.61 nM; on dopamine D2 receptors [2] it was 23.6 nM. In addition, the Emax at dopamine D2 receptors [4] worked out at 68%; on dopamine D2 receptors [2] it was 59%. Moreover, the “affinity for 5-HT2A receptors (in words)” value at 5-HT2A receptors is on record as “very weak affinity”.
Consider `CCOc1cccc2c3c([nH]c12)CN(CC[C@H]1CC[C@H](NC(=O)N(C)C)CC1)CC3` [I-B8, 3-(trans-4-(2-(8-ethoxy-1,3,4,9-tetrahydro-2H-pyrido[3,4-b]indol-2-yl)ethyl)cyclohexyl)-1,1-dimethylurea], for which, at dopamine D2 receptors [1], the “Affinity pKi ± SEM” value is “(6.41 ± 0.16)”. The Ki on dopamine D2 receptors [1] (read-out: Affinity Ki) came out at 381 nM. Moreover, the Emax in test [3] was found to be 37.9%.
`CCOc1cccc2c3c(oc12)CN(CCCCN1C(=O)CC(C)(C)CC1=O)CC3` [I-A45, 1-(4-(8-ethoxy-3,4-dihydrobenzofuro[2,3-c]pyridin-2(1H)-yl)butyl)-4,4-dimethylpiperidine-2,6-dione]: the “Affinity pKi ± SEM” value on dopamine D2 receptors [1] is “(6.14 ± 0.15)”. For the same compound, the Ki at dopamine D2 receptors [1] (read-out: Affinity Ki) stood at 714 nM. Moreover, the Emax at dopamine D2 receptors [2] was found to be 30%; in test [3] it was 74.3%. Moreover, the EC50 on dopamine D2 receptors [2] is 25.4 nM.
